Measured values taken from ChEMBL document CHEMBL4819020, “Discovery of [1,2,4]triazolo[1,5-a]pyrimidines derivatives as potential anticancer agents” (Eur J Med Chem, 2021).
Calls of active or inactive are those of the source. The rule behind the calls is not given here.

Experiments:
[1] = tested on: MGC-803; assay: Antiproliferative activity against human MGC-803 cells assessed as cell viability measured after 24 to 72 hrs by MTT assay; assay type: functional, cell-based; details: dose 0.75-3 µM, time 24-72 hrs
[2] = tested on: MGC-803; assay: Cell cycle arrest in human MGC-803 cells assessed as accumulation of cells in S phase at 0.75 uM measured after 24 hrs by PI staining based flow cytometry assay (reference value: 18.03%); assay type: functional
[3] = tested on: MGC-803; assay: Cell cycle arrest in human MGC-803 cells assessed as accumulation of cells in G2/M phase at 0.75 uM measured after 24 hrs by PI staining based flow cytometry assay (reference value: 33.35%); assay type: functional
[4] = tested on: MGC-803; assay: Induction of apoptosis in human MGC-803 cells assessed by cell rounding at 0.75 to 3 uM measured after 48 hrs by Hoechst 33342 staining based microscopic method; assay type: functional; details: dose 0.75-3 µM
[5] = tested on: MGC-803; assay: Induction of apoptosis in human MGC-803 cells assessed as necrotic cells at 0.75 uM measured after 48 hrs by Annexin V-FITC/PI staining based flow cytometry method (reference value: 3.60 %); assay type: functional
[6] = tested on: MGC-803; assay: Induction of apoptosis in human MGC-803 cells assessed as early apoptotic cells at 3 uM measured after 48 hrs by Annexin V-FITC/PI staining based flow cytometry method (reference value: 0.992 %); assay type: functional
[7] = tested on: MGC-803; assay: Induction of apoptosis in human MGC-803 cells assessed as necrotic cells at 3 uM measured after 48 hrs by Annexin V-FITC/PI staining based flow cytometry method (reference value: 3.60 %); assay type: functional
[8] = tested on: MGC-803; assay: Induction of apoptosis in human MGC-803 cells assessed by increase in ROS production at 3 uM measured after 24 hrs by DCFH-DA staining based flow cytometry; assay type: functional, cell-based
[9] = tested on: MGC-803; assay: Induction of apoptosis in human MGC-803 cells assessed as increase in p53 expression at 0.75 to 3 uM measured after 48 hrs by western blot assay; assay type: functional, cell-based; details: dose 0.75-3 µM
[10] = tested on: MGC-803; assay: Inhibition of cell migration in human MGC-803 cells measured after 48 hrs by transwell assay; assay type: functional, cell-based; details: dose 0.25-1 µM
[11] = Toxicity in mouse assessed as effect on spleen at 2 mg/kg, ig measured after 2 weeks by H and E staining based microscopic method; assay type: organism-based; details: in vivo, po, 336 h
[12] = tested on: MGC-803; assay: Antiproliferative activity against human MGC-803 cells assessed as cell viability measured at 0.75 to 3 uM by MTT assay; assay type: functional, cell-based; details: dose 0.75-3 µM, time 24-72 hrs, TDE = time-dependent effect

With `Cc1cc(Nc2ccn(Cc3nc(C)c4ccccc4n3)n2)n2nc(SCc3ccc(Br)cc3)nc2n1` as the compound, how does the Activity [1] read?
Its Activity is “Dose-Dependent Effect”.

What about the Activity [2] of the same compound?
Its Activity is 22.83%.

What about the Activity [3] of the same compound?
Its Activity is 19.3%.

And the Activity [4]?
The Activity was “Dose-Dependent Effect”.

What about the Activity [5] of the same compound?
The Activity was 3.46%.

And the Activity [6]?
Its Activity is 19.3%.

What about the Activity [7] of the same compound?
The Activity was 24.9%.

And the Activity [8]?
Its Activity is “Active”.

What about the Activity [9] of the same compound?
The Activity was “Dose-Dependent Effect”.

And the Activity [10]?
The Activity was “Dose-Dependent Effect”.

What about the Activity [11] of the same compound?
Its Activity is “Non-Toxic”.

And the Activity [12]?
Its Activity is “Tde”.
